From patent US6610708B1, “Cyclic amino compounds” (Sankyo Company, Limited, priority 1998, dated 2003)

Legend:
Human Platelets = assay: Antiaggregatory action in human platelets (ADP-induced aggregation in platelet-rich plasma); format: cell-based; settings: Platelet, human PRP, read-out: Test 1 (% inhibition) of platelet aggregation; for inhibition at 10 µg/mL: 10 μg/ml test compound; for inhibition at 30 µg/mL: 30 μg/ml test compound; for inhibition at 100 µg/mL: 100 μg/ml test compound
Experimental: Antiaggregatory Action in Human Platelets
Platelet aggregation was measured using an automatic platelet aggregometer (PAM-8C, Mebanix) using the method of G.V.R. Born [Nature, 194, 927-929 ([…])] with a slight modification. Blood was collected from the antecubital vein of healthy volunteers who had not taken any medications for two weeks using 3.8% sodium citrate as an anticoagulant ( 1/9 volumes of blood). Platelet-rich plasma (PRP) was obtained by centrifugation (CR5DL, Hitachi) at 200× g for 15 min at room temperature. Platelet-poor plasma (PPP) was obtained by centrifugation of the remaining blood at 2,000× g for 10 min at room temperature. Platelet counts in PRP were measured by an automatic hematology analyzer (K-1000, Toa Iyo Denshi), and adjusted to 3×10^8 /ml by adding PPP. PRP prepared as described above was used for the platelet aggregation experiment. PRP (0.24 ml) containing a test compound was added to a cuvette and set placed in the platelet aggregometer. After pre-incubation for 1.5 min at 37° C., 0.01 ml of 0.25 mM ADP were added to the cuvette to induce platelet aggregation. Platelet aggregation was monitored for 10 min.
Antiaggregatory action of the test compound was determined as a percent inhibition (%) against platelet aggregation of a control (free of the test compound).

platelet aggregation = assay: Antiaggregatory action in rats (ADP-induced platelet aggregation in PRP after intravenous administration); format: in vivo; settings: Rattus norvegicus, 1 h, male SD rats, blood collected one hour after administration, versus control rats, read-out: Test 2 (% inhibition)
Experimental: Antiaggregatory Action in Rats
Platelet aggregation was measured using an automatic platelet aggregometer (PAM-8C, Mebanix) using the method of G.V.R. Born [Nature, 194, 927-929(1962)] with a slight modification. The experimental animals were male SD rats (Japan SLC). One hour after intravenous administration of a test compound to the rats, blood was collected from the abdominal aorta under anesthesia, using 3.8% sodium citrate as an anticoagulant ( 1/9 volumes of blood). Platelet-rich plasma (PRP) was obtained by centrifugation (CR5DL, Hitachi) at 230× g for 15 min at room temperature. Platelet-poor plasma (PPP) was obtained by centrifugation of the remaining blood at 2,000× g for 10 min at room temperature. Platelet counts in PRP were measured by an automatic hematology analyzer (K-1000, Toa Iyo Denshi), and adjusted to 5×10^8 /ml by adding PPP, and then used for the platelet aggregation experiment. PRP (0.24 ml) was added to a cuvette and placed in the platelet aggregometer. After pre-incubation for 1.5 min at 37° C., 0.01 ml of 0.75 mM ADP were added to the cuvette to induce platelet aggregation. Platelet aggregation was monitored for 8 min.
Antiaggregatory action (% inhibition) of the test compound was determined from a comparison of the maximum aggregation of the test compound-treated rat with that of control rats (free of the administration of the test compound).

Row | melting point [°C] | Compound | inhibition at 10 µg/mL (Human Platelets) [%] | inhibition at 30 µg/mL (Human Platelets) [%] | inhibition at 100 µg/mL (Human Platelets) [%] | inhibition at 10 mg/kg (platelet aggregation) [%]
1 | 63 to 69 | Cc1ccc(S(=O)(=O)SC2CCN(C(C(=O)C3CC3)c3ccccc3F)CC2)cc1 (stereo not drawn) [Example 1, 1-(α-Cyclopropylcarbonyl-2-fluorobenzyl)-4-(4-methylphenylsulfonylthio)-piperidine] | 36.5 | 99.6 | 100 | –
2 | 106 to 109 | COC(=O)C(c1ccccc1F)N1CCC(SS(=O)(=O)c2ccc(C)cc2)CC1 (stereo not drawn) [Example 3, 1-(2-Fluoro-α-methoxycarbonylbenzyl)-4-(4-methylphenylsulfonylthio)-piperidine] | – | – | – | –
3 | 98 to 106 | Cc1ccc(S(=O)(=O)SC2CCN(C(C(=O)C3CC3)c3ccccc3F)C2)cc1 (stereo not drawn) [Example 4, 1-(α-Cyclopropylcarbonyl-2-fluorobenzyl)-3-(4-methylphenylsulfonylthio)-pyrrolidine] | – | – | – | –
4 | – | CCOC(=O)/C=C1\CN(C(C(=O)C2CC2)c2ccccc2F)CCC1SS(=O)(=O)c1ccc(C)cc1 (stereo not drawn) [Example 6 (d), (E)-1-(α-Cyclopropylcarbonyl-2-fluorobenzyl)-3-ethoxycarbonylmethylidene-4-(4-methylphenylsulfonylthio)piperidine] | 22.5 | 53.2 | 100 | 51.8
5 | 144 to 146 | COC(=O)/C=C1\CN(C(C(=O)OC)c2ccccc2Cl)CCC1SS(=O)(=O)c1ccc(C)cc1 (stereo not drawn) [Example 7 (ii), (E)-1-(2-Chloro-α-methoxycarbonylbenzyl)-3-methoxycarbonylmethylidene-4-(4-methylphenylsulfonylthio)piperidine] | 34.5 | 81.5 | – | –
6 | 89 to 91 | CS(=O)(=O)SC1CCN(C(C(=O)C2CC2)c2ccccc2F)CC1 (stereo not drawn) [Example 8, 1-(α-Cyclopropylcarbonyl-2-fluorobenzyl)-4-methylsulfonylthiopiperidine] | 19.5 | 88 | 100 | –
7 | 105 to 116 | O=C(C1CC1)C(c1ccccc1F)N1CCC(SS(=O)(=O)c2ccccc2)CC1 (stereo not drawn) [Example 9, 1-(α-Cyclopropylcarbonyl-2-fluorobenzyl)-4-phenylsulfonylthiopiperidine] | – | – | – | –
8 | 108 to 116 | O=C(C1CC1)C(c1ccccc1F)N1CCC(SS(=O)(=O)c2ccc(Cl)cc2)CC1 (stereo not drawn) [Example 10, 4-(4-Chlorophenylsulfonylthio)-1-(α-cyclopropylcarbonyl-2-fluorobenzyl)-piperidine] | – | – | – | –
9 | 110 to 121 | O=C(C1CC1)C(c1ccccc1F)N1CCC(SS(=O)(=O)c2ccc(F)cc2)CC1 (stereo not drawn) [Example 11, 1-(α-Cyclopropylcarbonyl-2-fluorobenzyl)-4-(4-fluorophenylsulfonylthio)-piperidine] | – | – | – | –
10 | 113 to 122 | COc1ccc(S(=O)(=O)SC2CCN(C(C(=O)C3CC3)c3ccccc3F)CC2)cc1 (stereo not drawn) [Example 12, 1-(α-Cyclopropylcarbonyl-2-fluorobenzyl)-4-(4-methoxyphenylsulfonylthio)piperidine] | – | – | – | –
11 | 110 to 118 | Cc1ccc([S+]([O-])SC2CCN(C(C(=O)C3CC3)c3ccccc3F)CC2)cc1 (stereo not drawn) [Example 13, 1-(α-Cyclopropylcarbonyl-2-fluorobenzyl)-4-(4-methylphenylsulfinylthio)-piperidine] | – | – | – | –
12 | 87 to 100 | Cc1ccc([S+]([O-])SC2CCN(C(C(=O)C3CC3)c3ccccc3F)C2)cc1 (stereo not drawn) [Example 14, 1-(α-Cyclopropylcarbonyl-2-fluorobenzyl)-3-(4-methylphenylsulfinylthio)-pyrrolidine] | – | – | – | –
13 | 105 to 111 | C[S+]([O-])SC1CCN(C(C(=O)C2CC2)c2ccccc2F)CC1 (stereo not drawn) [Example 15, 1-(α-Cyclopropylcarbonyl-2-fluorobenzyl)-4-methylsulfinylthiopiperidine] | – | – | – | –
14 | 96 to 103 | Cc1ccc(SSC2CCN(C(C(=O)C3CC3)c3ccccc3F)CC2)cc1 (stereo not drawn) [Example 16, 1-(α-Cyclopropylcarbonyl-2-fluorobenzyl)-4-(4-methylphenyldisulfanyl)-piperidine] | – | – | – | –
15 | 110 to 116 | O=C(C1CC1)C(c1ccccc1F)N1CCC(SSc2ccccc2[N+](=O)[O-])CC1 (stereo not drawn) [Example 18, 1-(α-Cyclopropylcarbonyl-2-fluorobenzyl)-4-(2-nitrophenyldisulfanyl)-piperidine] | – | – | – | –
16 | – | N[C@@H](CSSC1CCN(C(C(=O)C2CC2)c2ccccc2F)C/C1=C/C(=O)O)C(=O)O (stereo partly drawn) [Example 19 (d), (Z)-4-[(R)-2-Amino-2-carboxyethyldisulfanyl]-3-carboxymethylidene-1-(α-cyclopropylcarbonyl-2-fluorobenzyl)piperidine] | – | – | – | 89.2

Row | Compound | melting point [°C] | inhibition at 10 µg/mL (Human Platelets) [%] | inhibition at 30 µg/mL (Human Platelets) [%] | inhibition at 100 µg/mL (Human Platelets) [%] | inhibition at 10 mg/kg (platelet aggregation) [%]
17 | CCOC(=O)/C=C1\CN(C(C(=O)C2CC2)c2ccccc2F)CCC1SS(=O)(=O)c1ccc(C)cc1 (stereo not drawn) [Example 6, (E)-1-(α-Cyclopropylcarbonyl-2-fluorobenzyl)-3-ethoxycarbonylmethylidene-4-(4-methylphenylsulfonylthio)piperidine] | 94 to 103 | – | – | – | –
18 | CCOC(=O)/C=C1\CN(C(C(=O)OC)c2ccccc2Cl)CCC1SS(=O)(=O)c1ccc(C)cc1.Cl (stereo not drawn) [Example 7 (d), (E)-1-(2-chloro-α-methoxycarbonylbenzyl)-3-ethoxycarbonylmethylidene-4-(4-methylphenylsulfonylthio)piperidine hydrochloride] | 73 to 78 | 24.6 | 60 | 99.1 | 59
19 | N[C@@H](CSSC1CCN(C(C(=O)C2CC2)c2ccccc2F)C/C1=C/C(=O)O)C(=O)O (stereo partly drawn) [Example 19, (Z)-4-[(R)-2-Amino-2-carboxyethyldisulfanyl]-3-carboxymethylidene-1-(α-cyclopropylcarbonyl-2-fluorobenzyl)piperidine] | 135 to 138 | – | – | – | –
